Source: patent US7045515B2, “β-lactam compounds process for reproducing the same and serum cholesterol-lowering agents containing the same” (Kotobuki Pharmaceutical Co., Ltd., priority 2001, dated 2006)
Like-named read-outs stand apart in the source and are kept apart here.

Assays:
[1] = test system: α-N-acetyl-D-galactosaminidase; assay: Biological stability test against glycosidase (remaining substrate by NMR); assay type: in vitro ADME; conditions: for remaining substrate: α-N-acetyl galactosaminidase 0.32 unit, citric acid buffer pD=3, 35° C.
Experimental: [Biological Stability Test]
To evaluate the stability of C-glycoside, the biological stability of C-allyl derivative (A) and O-allyl derivative (B) against to α-N-acetyl-D-galactosaminidase as glycosidase ware compared according to Mark von Itzstein's method (Org. Lett., 1999, 1, 443–446).
[drawing 118] • enzyme; α-N-acetyl galactosaminidase 0.32 unit (1.69 unit/mL 0.1% BSA containing 0.5M sodium citrate buffer) • solvent; citric acid buffer (pD=3) 0.6 mL • temperature; 35° C. • procedure; Substrate (2 mg) was dissolved in citric acid buffer (0.6 mL) and α-N-acetyl galactosaminidase (0.32 unit) was added. NMR spectrum was determined in every constant time and the content of the remaining substrates were determined.

[2] = test system: hypercholesterolemic hamster; assay: Hypocholesterolemic activity in hamsters fed a 0.5%-cholesterol diet; assay type: in vivo; conditions: Mesocricetus auratus, po, negative = hypocholesterolemic action, read-out: Serum cholesterol (%); for change in vivo at 3 mg/kg: 3 mg/kg orally daily; for change in vivo at 0.3 mg/kg: 0.3 mg/kg orally daily; for change in vivo at 10 mg/kg: 10 mg/kg orally daily; for change in vivo at 20 mg/kg: 20 mg/kg orally daily
Experimental: [Hypocholesterolemic Agents Using the Hypercholesterolemic Hamster]
Hamsters were derived into groups with 3 animals per group and fed a 0.5%-cholesterol containing CE-2 diet (CLEA Japan Inc.) for 4 or 7 days. The normal dietary group were fed a standard CE-2 during the experiment. Each compound or vehicle (0.2 mL of corn oil) per 100 g body weight was orally administered daily for 4 or 7 days from the day that high-cholesterol diet was started. At 20 hr after the final administration, blood samples were collected from the abdominal aorta of non-fasted animals under anesthesia with diethylether. Serum cholesterol was measured by enzymatic method using cholesterol E-test wako (Wako Pure Chemical Industries). Activity of the test compounds is expressed as percent reduction of the test compound on the basis of comparison with rised total cholesterol treated only with no-treatment-high-cholesterol diet. The test compounds with the optical rotation value in the compounds 1–58 were evaluated as the chiral compounds.

[3] = 168 h, dosage day 7, changed percent vs rise in total cholesterol on high-cholesterol diet
[4] = 96 h, dosage day 4, changed percent

For `C=CC[C@H]1O[C@H](CO)[C@H](O)[C@H](O)[C@H]1NC(C)=O` [A], which “effect of enzyme on substrate (degradation)” value ([1]; after 24 h) is on record?
The value was “unaffected by enzyme”.

What about the remaining substrate ([1]; time 2) of the same compound?
Its remaining substrate is 100.

And the remaining substrate ([1]; time 4)?
The remaining substrate was 100.

And the remaining substrate ([1]; time 6)?
Its remaining substrate is 100.

What about the remaining substrate ([1]; time 8) of the same compound?
Its remaining substrate is 100.

And the remaining substrate ([1]; time 10)?
The remaining substrate was 100.

What about the remaining substrate ([1]; time 12) of the same compound?
Its remaining substrate is 100.

And the remaining substrate ([1]; time 18)?
Its remaining substrate is 100.

What about the remaining substrate ([1]; time 24) of the same compound?
Its remaining substrate is 100.

What does the source list for `O=C1[C@H](CCCc2ccc(F)cc2)[C@@H](c2ccc(C[C@@H]3O[C@H](CO)[C@@H](O)[C@H](O)[C@H]3O)cc2)N1c1ccc(F)cc1` (relative stereo) [Compound 2, (4S*,3R*)-4-(4-{[(2S,5S,3R,4R,6R)-3,4,5-Trihydroxy-6-(hydroxymethyl)perhydro-2H-pyran-2-yl]methyl}phenyl)-1-(4-fluorophenyl)-3-[3-(4-fluorophenyl)propyl]azetidine-2-one]?
change in vivo at 3 mg/kg [2, 3]: -120%; melting point: 110 to 112 °C

For `O=C1[C@H](CC[C@H](O)c2ccc(F)cc2)[C@@H](c2ccc(CC[C@@H]3O[C@H](CO)[C@@H](O)[C@H](O)[C@H]3O)cc2)N1c1ccccc1` [Compound 56], which change in vivo at 0.3 mg/kg [2, 4] is on record?
The change in vivo at 0.3 mg/kg was -84%.

And the melting point?
Its melting point is 82 to 84 °C.

For `O=C1[C@H](CC[C@H](O)c2ccc(F)cc2)[C@@H](c2ccc(F)cc2)N1c1ccc(C[C@@H]2O[C@H](CO)[C@@H](O)[C@H](O)[C@H]2O)cc1` [Compound 38, (4S,3R)-3-[(3S)-3-(4-Fluorophenyl)-3-hydroxypropyl]-1-(4-{[(2S,5S,3R,4R,6R)-3,4,5-trihydroxy-6-(hydroxymethyl)perhydro-2H-pyran-2-yl]methyl}phenyl)-1-(4-fluorophenyl)azetidine-2-one], which change in vivo at 10 mg/kg [2, 4] is on record?
Its change in vivo at 10 mg/kg is -2%.

And the melting point?
Its melting point is 200 to 201 °C.

Which results are given for `O=C1[C@H](CCOc2ccc(F)cc2)[C@@H](c2ccc(OCC3O[C@H](CO)[C@@H](O)[C@H](O)[C@H]3O)cc2)N1c1ccc(F)cc1` (relative stereo) [Compound 15, (4S*,3R*)-4-(4-{[(4S,5S,2R,3R,6R)-3,4,5-Trihydroxy-6-(hydroxymethyl)perhydro-2H-pyran-2-yl]methoxy}phenyl)-1-(4-fluorophenyl)-3-[2-(4-fluorophenoxy)ethyl]azetidine-2-one]?
change in vivo at 20 mg/kg [2, 4]: -21%; melting point: 64 to 65 °C

For `O=C1[C@H](CC[C@H](O)c2ccc(C3OC(CO)C(O)C(O)C3O)cc2)C(c2ccc(F)cc2)N1c1ccc(F)cc1` (stereo in doubt) [Compound 49, 3-((3S)-(4-[(2S,5S,3R,4R,6R)-3,4,5-Trihydroxy-6-(hydroxymethyl)perhydro-2H-pyran-2-yl]phenyl}-3-hydroxypropyl)(4S,3R)-1,4-bis(4-fluorophenyl)azetidine-2-one], which change in vivo at 10 mg/kg [2, 4] is on record?
The change in vivo at 10 mg/kg was -55%.

What about the melting point of the same compound?
The melting point was 111 to 113 °C.

For `CC(=O)OC[C@H]1O[C@@H](Cc2ccc([C@@H]3[C@@H](CCOc4ccc(F)cc4)C(=O)N3c3ccc(F)cc3)cc2)[C@H](OC(C)=O)[C@@H](OC(C)=O)[C@@H]1OC(C)=O` (relative stereo) [Compound 13, (3S,2R,4R,5R,6R)-2-[(4-{(4S*,3R*)-1-(4-Fluorophenyl)-3-[2-(4-fluorophenoxy)ethyl]-2-oxoazetidine-4-yl}phenyl)methyl]-4,5-diacetyloxy-6-(acetoxymethyl)perhydro-2H-pyran-3-ylacetate], which change in vivo at 20 mg/kg [2, 4] is on record?
The change in vivo at 20 mg/kg was -28%.

What about the melting point of the same compound?
Its melting point is 64 to 66 °C.

With `O=C(O)[C@H]1O[C@@H](Cc2ccc([C@@H]3[C@@H](CC[C@H](O)c4ccc(F)cc4)C(=O)N3c3ccc(F)cc3)cc2)[C@H](O)[C@@H](O)[C@@H]1O` [Compound 33] as the compound, how does the change in vivo at 3 mg/kg [2, 4] read?
The change in vivo at 3 mg/kg was -67%.

What about the melting point of the same compound?
Its melting point is 82 to 84 °C.

Which results are given for `Cc1ccc(N2C(=O)[C@H](CC[C@H](O)c3ccc(F)cc3)[C@H]2c2ccc(C[C@@H]3O[C@H](CO)[C@@H](O)[C@H](O)[C@H]3O)cc2)cc1` [Compound 24, (4S,3R)-3-[(3S)-3-(4-Fluorophenyl)-3-hydroxypropyl]-4-(4-{[(2S,5S,3R,4R,6R)-3,4,5-trihydroxy-6-(hydroxymethyl)perhydro-2H-pyran-2-yl]methyl}phenyl)-1-(4-methylphenyl)azetidine-2-one]?
change in vivo at 3 mg/kg [2, 3]: -156%; melting point: 102 to 104 °C

What does the source list for `Cc1ccc(N2C(=O)[C@H](CC[C@H](O)c3ccc(F)cc3)[C@H]2c2ccc(CC[C@@H]3O[C@H](CO)[C@@H](O)[C@H](O)[C@H]3O)cc2)cc1` [Compound 57]?
change in vivo at 0.3 mg/kg [2, 4]: -81.3%; melting point: 116 to 118 °C

Which change in vivo at 3 mg/kg [2, 3] does the source give for `Cc1ccc(N2C(=O)[C@H](CCC(=O)c3ccc(F)cc3)[C@H]2c2ccc(C[C@@H]3O[C@H](CO)[C@@H](O)[C@H](O)[C@H]3O)cc2)cc1` [Compound 28, (4S,3R)-4-(4-{[(2S,5S,3R,4R,6R)-3,4,5-Trihydroxy-6-(hydroxymethyl)perhydro-2H-pyran-2-yl]methyl}phenyl)-1-(4-methylphenyl)-3-[3-(4-fluorophenyl)-3-oxopropyl]azetidine-2-one] here?
The change in vivo at 3 mg/kg was -130%.

What about the melting point of the same compound?
The melting point was 86 to 88 °C.

Which change in vivo at 3 mg/kg [2, 4] does the source give for `O=C1[C@H](CC[C@H](O)c2ccc(F)cc2)[C@@H](c2ccc(/C=C/[C@@H]3O[C@H](CO)[C@@H](O)[C@H](O)[C@H]3O)cc2)N1c1ccc(F)cc1` [Compound 45, (4S,3R)-3-[(3S)-3-(4-Fluorophenyl)-3-hydroxypropyl]4-(4-{[(2S,5S,3R,4R,6R)-3,4,5-trihydroxy-6-(hydroxymethyl)perhydro-2H-pyran-2-yl]ethene}phenyl)-1-(4-fluorophenyl)azetidine-2-one] here?
Its change in vivo at 3 mg/kg is -136%.

And the melting point?
Its melting point is 84 to 86 °C.

With `O=C1[C@H](CC[C@H](O)c2ccc(F)cc2)[C@@H](c2ccc(CC[C@@H]3O[C@H](CO)[C@@H](O)[C@H](O)[C@H]3O)cc2)N1c1ccc(F)cc1` [Compound 46, (4S,3R)-3-[(3S)-3-(4-Fluorophenyl)-3-hydroxypropyl]4-(4-([(2S,5S,3R,4R,6R)-3,4,5-trihydroxy-6-(hydroxymethyl)perhydro-2H-pyran-2-yl]ethyl}phenyl)-1-(4-fluorophenyl)azetidine-2-one] as the compound, how does the change in vivo at 3 mg/kg [2, 4] read?
The change in vivo at 3 mg/kg was -147%.

What about the melting point of the same compound?
The melting point was 153 to 155 °C.
